Reference: article PMC7993260 (Clinical and Translational Science, 2020)
Read-outs that look alike come from different tables or passages of the source. Each block holds one molecule with its values, some of them ahead of it.

Assays:
OATP2B1 = conditions: in vitro; cited from earlier work
OATP1B1 = conditions: in vitro; cited from earlier work
OATP1A2 = conditions: in vitro; cited from earlier work
[1] = type: in vivo, human; conditions: for A e, amount excreted unchanged into urine over 24 hours / CL renal / AUC(0-t) / AUC(0-inf): geometric mean; for CL renal: plasma and urine, CLrenal; for AUC(0-inf): AUC0–∞
[2] = Acute hemodynamic response to lisinopril; type: in vivo, human
[3] = cited from earlier work
PEPT1 = conditions: Caco-2 cells; cited from earlier work
[4] = stated as similar for lisinopril and nadolol

Molecule: O=C(O[C@@H]1Cc2c(O)cc(O)cc2O[C@@H]1c1cc(O)c(O)c(O)c1)c1cc(O)c(O)c(O)c1 [EGCG, (–)‐epigallocatechin gallate]
inhibition of OATP2B1 activity (OATP2B1): have been shown to inhibit
inhibition of OATP1B1 activity (OATP1B1): have been shown to inhibit
inhibition of OATP1A2 activity (OATP1A2): have been shown to inhibit

decrease in AUC0-24 in the GTE phase compared with control phase ([1]; GTE vs control, P < 0.001): 69%
decrease in AUC0–∞ in the GTE phase compared with control phase ([1]; GTE vs control, P < 0.001): 67%
decrease in C max in the GTE phase compared with control phase ([1]; GTE vs control, P < 0.001): 71%
A e, amount excreted unchanged into urine over 24 hours ([1]; GTE): 0.54 mg
CL renal ([1]; both, human, po, 10 mg, GTE): 56.9 mL/min
CL renal ([1]; both, human, po, 10 mg, control (water)): 57.7 mL/min
Tmax ([1]; both, human, plasma, po, 10 mg): 6 h
AUC(0-t) ([1]; both, human, plasma, po, 10 mg, AUC0–24, GTE): 157 ng·h/mL
AUC(0-t) ([1]; both, human, plasma, po, 10 mg, AUC0–24, control (water)): 504 ng·h/mL
AUC(0-inf) ([1]; both, human, plasma, po, 10 mg, GTE): 186 ng·h/mL
AUC(0-inf) ([1]; both, human, plasma, po, 10 mg, control (water)): 554 ng·h/mL
A e, amount excreted unchanged into urine over 24 hours ([1]; control (water)): 1.75 mg
A e GMR (GTE/control) ([1]; geometric mean ratio GTE/control): 0.307
Molecule: NCCCC[C@H](N[C@@H](CCc1ccccc1)C(=O)O)C(=O)N1CCC[C@H]1C(=O)O [lisinopril]
adverse events ([1]; ten subjects who completed the study, both phases): no adverse events
DBP ([2]; GTE phase, 6 hours after 10 mg oral lisinopril, mean ± SD, baseline 68 ± 10 mmHg): 55 ± 4 mmHg
mean maximum decrease of DBP from baseline ([2]; both phases, at 6 hours after the administration): about 20%
SBP and PR, control vs GTE phases ([2]; single oral dose 10 mg lisinopril): no differences
oral bioavailability [3]: 29%
oral bioavailability [3, 4]: ca. 30%

Molecule: CC(C)(C)NCC(O)COc1cccc2c1CC(O)C(O)C2 (stereo not drawn) [nadolol]
oral bioavailability [3, 4]: ca. 30%

Molecule: (–)‐epicatechin gallate
inhibition of OATP2B1 activity (OATP2B1): have been shown to inhibit
inhibition of OATP1B1 activity (OATP1B1): have been shown to inhibit
inhibition of OATP1A2 activity (OATP1A2): have been shown to inhibit
inhibition of uptake transport of glycyl-sarcosine, a typical substrate of PEPT1 (PEPT1): not inhibiting
